Measurements published in patent US20130252843A1, “METHOD OF MAKING AND USING FLUORESCENT-TAGGED NANOPARTICLES AND MICROARRAYS” (THE STATE OF OREGON ACTING BY AND THROUGH THE STATE BOARD …, priority 2010, published 2013).
Read-outs that look alike come from different tables or passages of the source.

Tests used:
ConA-FSNPs = target: T1, ConA-FSNPs (Canavalia ensiformis, UniProt P02866); test: Carbohydrate microarray incubated with ConA-FSNPs, fluorescence imaging; type: binding; conditions: PS coating; ConA-FSNPs 0.5 mg/ml
T1 construct: purchased Sigma-Aldrich Type IV
Procedure: This example concerns the fabrication of carbohydrate microarrays. […] The slides were then reacted with PAAm-4-PFPA solution at 50° C. for 5 hours, and sonicated twice in H2O for 5 minutes each time. Solutions of carbohydrates were prepared in H2O. […] The slides were dried under oil pump for 1 hour. A solution of PS or PEO in CHCl3 (5 mg/ml) was spinning-coated on the slides. The Slides were then covered with a 280-nm long-path optical filter (WG-280, Schott Glass), irradiated with a 450-W medium pressure Hg lamp (Hanovia) for 9 min, sonicated 5 min in CHCl3 and 5 minutes in H2O.
This example concerns microarray assay and fluorescence imaging. Carbohydrate microarrays were incubated in a 0.5 mg/ml solution of ConA-FSNPs in HEPES (pH 7.5, 1 mM CaCl2, 1 mM MnCl2) for 1 hour, rinsed with HEPES buffer 3 times and dried. The slides were scanned using a Genepix 4000B microarray scanner at excitation of 532 nm. Image analysis was carried out with Axon Genepix Pro 5.1 analysis software (Molecular Devices Corporation, Union City, Calif.).
FIG. 52 provides the fluorescence images of carbohydrate microarrays with PS or PEO coating incubated with ConA-FSNPs at 0.5 mg/ml. […] However, for carbohydrate microarrays having a PEO coating, the signal from those “high-intensity” carbohydrate targets was negative (FIG. 53).

Con A = target: T2, Con A (Canavalia ensiformis, UniProt P02866)
T2 construct: purchased Sigma-Aldrich Type IV (catalogue number not given)

CVN-M = CVN-M (Nostoc ellipsosporum, UniProt P81180, E41A/N42A/T57A/R76A/Q78G)
CVN-Q = CVN-Q (Nostoc ellipsosporum, UniProt P81180, Q50C)
[1] = target: blindly prepared lectins (U1-U7) (Glycine max, UniProt P05046); type: binding; design: unit not given here
Procedure: The unspecific binding sites of Sugar coupled Au-PFPA was inhibited by the addition of BSA (3% BSA, 0.2% Tween in PBS buffer pH 7). The 1,500 μL of sugar-coupled Au-PFPA was centrifuged at 9,000 rpm for 8 minutes and was redissolved in a PBS buffer with 3% BSA (0.2% Tween). The volume was made up to 900 μL. The resultant solution was incubated at room temperature with gentle shaking for 1 hour. The BSA blocked Au-PFPA-sugar nanoparticle was centrifuged at 10,000 rpm for 6 minutes and the excess BSA was removed. To a volume of 1,500 μL solution 10 mg/mL lectin (Con A—Concanavalin A, Canavalia ensiformis jack bean protein, SBA—soybean agglutinin, Glycine max and PNA—Peanut Agglutinin, Arachis hypogaea all purchased from Sigma Aldrich) was introduced the resultant solution was incubated at room temperature while gently shaking.
To test the training matrix and its strength to identify individual lectins, seven blindly prepared lectins (U1-U7) were used as test samples. The procedure for each test sample is the same as that used for the known samples used in the training matrix. The final SPR shift (Table 14) was used in the training matrix (Table 10) for prediction.

[2] = free glycan, solution; cited from earlier work
[3] = free glycan; cited from earlier work
[4] = Domain A; cited from earlier work
[5] = Domain B; cited from earlier work

Row | Compound | labeling intensity by ConA-FSNPs on carbohydrate microarray (ConA-FSNPs) | Association constant Ka with Con A (Con A; [2]) [M⁻¹] | Association constant Ka with CVN-M (CVN-M; [3]) [M⁻¹] | Association constant Ka with CVN-Q (CVN-Q; [4]) | Association constant Ka with CVN-Q (CVN-Q; [5]) | also measured
1 | Dextran | slightly less |  |  |  |  | 
2 | OC[C@H]1O[C@H](O[C@@H]2C(O)O[C@H](CO)[C@@H](O)[C@@H]2O)[C@@H](O)[C@@H](O)[C@@H]1O (stereo partly drawn) [Compound 2α-Man2, 2-O-α-D-Mannopyranosyl-D-mannopyranose] | most intensely | 41700 | 1320 | 1.43 × 10^3 (Domain A); M^−1 | 1.56 × 10^4 (Domain B) M^−1 | Kd (Con A; read-out: dissociation constant of the free ligand with Con A; data in brackets, free ligand; cited from earlier work): 24 µM; Kd (CVN-M; read-out: dissociation constant of the free ligand with CVN-M; data in brackets, free ligand; cited from earlier work): 757 µM; Kd (CVN-Q; read-out: dissociation constant of the free ligand with CVN-Q; data in brackets, free ligand; cited from earlier work): 89.8 µM
3 | OC[C@H]1O[C@@H](O[C@H]2[C@H](O)[C@@H](O)[C@@H](O)O[C@@H]2CO)[C@H](O)[C@@H](O)[C@H]1O [Lac] | slightly less |  |  |  |  | 
4 | O=C[C@H](O)[C@@H](O)[C@H](O[C@@H]1O[C@H](CO)[C@@H](O)[C@H](O)[C@H]1O)[C@H](O)CO [Cellobiose] |  |  |  |  |  | Unknown SPR shift, weak binders ([1]; unknown protein u1 (predicted class SBA)): 2.1; Unknown SPR shift, weak binders ([1]; unknown protein u7 (predicted class SBA)): 2.1
5 | OC[C@H]1O[C@H](O[C@@H]2[C@@H](O[C@@H]3C(O)O[C@H](CO)[C@@H](O)[C@@H]3O)O[C@H](CO)[C@@H](O)[C@@H]2O)[C@@H](O)[C@@H](O)[C@@H]1O (stereo partly drawn) [2α, 2α-Man3, α-1,2-α-1,2-mannotriose] |  | 379000 | 294000 | 2.94 × 10^5 (Domain A); M^−1 | 2.33 × 10^4 (Domain B) M^−1 | Kd (Con A; data in brackets, free ligand; read-out: dissociation constant of the free ligand with Con A; cited from earlier work): 2.97 µM; Association constant Ka with Con A (Con A; free glycan, solution; listed as 2α,2α-Man3; cited from earlier work): 379000 M⁻¹; Kd (CVN-M; data in brackets, free ligand; read-out: dissociation constant of the free ligand with CVN-M; cited from earlier work): 3.4 µM; Association constant Ka with CVN-M (CVN-M; free glycan; listed as 2α,2α-Man3; cited from earlier work): 294000 M⁻¹; Kd (CVN-Q; data in brackets, free ligand; read-out: dissociation constant of the free ligand with CVN-Q; cited from earlier work): 15.5 µM
